# Assay results from ChEMBL document CHEMBL3769303, “Discovery of membrane active benzimidazole quinolones-based topoisomerase inhibitors as potential DNA-binding antimicrobial agents” (Eur J Med Chem, 2016).
# Columns and labels:
# Assay type in all cases: functional
# [1] = tested on: Shigella dysenteriae; test: Antibacterial activity against Shigella dysenteriae by micro broth dilution method
# [2] = tested on: Staphylococcus aureus; test: Antibacterial activity against methicillin-resistant Staphylococcus aureus N315 by micro broth dilution method
# [3] = tested on: Staphylococcus aureus; test: Antibacterial activity against Staphylococcus aureus ATCC 25923 by micro broth dilution method
# [4] = tested on: Micrococcus luteus; test: Antibacterial activity against Micrococcus luteus ATCC 4698 by micro broth dilution method; conditions: NCTC 2665
# [5] = tested on: Bacillus spizizenii; test: Antibacterial activity against Bacillus subtilis ATCC 6633 by micro broth dilution method
# [6] = tested on: Escherichia coli; test: Antibacterial activity against Escherichia coli DH52 by micro broth dilution method
# [7] = tested on: Escherichia coli; test: Antibacterial activity against Escherichia coli JM109 by micro broth dilution method
# [8] = tested on: Pseudomonas aeruginosa; test: Antibacterial activity against Pseudomonas aeruginosa ATCC 27853 by micro broth dilution method
# [9] = Antibacterial activity against Bacillus proteus ATCC 13315 by micro broth dilution method
# [10] = tested on: Salmonella enterica; test: Antibacterial activity against Salmonella enterica ATCC 14028 by micro broth dilution method
# [11] = Antifungal activity against Candida mycoderma ATCC 9888 after 24 hrs by micro broth dilution method; conditions: Candida vini
# [12] = tested on: Cyberlindnera jadinii; test: Antifungal activity against Candida utilis ATCC 9950 after 24 hrs by micro broth dilution method; conditions: Williopsis jadinii, ATCC 9950, 24 h
# [13] = tested on: Aspergillus flavus; test: Antifungal activity against Aspergillus flavus ATCC 204304 after 24 hrs by micro broth dilution method; conditions: ATCC 204304, 24 h
# [14] = tested on: Saccharomyces cerevisiae; test: Antifungal activity against Saccharomyces cerevisiae ATCC 9763 after 24 hrs by micro broth dilution method; conditions: ATCC 9763, 24 h
# [15] = tested on: Candida albicans; test: Antifungal activity against Candida albicans ATCC 10231 after 24 hrs by micro broth dilution method; conditions: ATCC 10231, 24 h
SMILES,MIC [1],MIC [2],MIC [3],MIC [4],MIC [5],MIC [6],MIC [7],MIC [8],MIC [9],MIC [10],MIC80 [11],MIC80 [12],MIC80 [13],MIC80 [14],MIC80 [15]
CCCCCCCCCCn1c(CN2CCN(c3cc4c(cc3F)c(=O)c(C(=O)O)cn4C3CC3)CC2)nc2ccccc21,64 µg/mL,64 µg/mL,64 µg/mL,128 µg/mL,64 µg/mL,128 µg/mL,128 µg/mL,32 µg/mL,32 µg/mL,32 µg/mL,64 µg/mL,64 µg/mL,16 µg/mL,16 µg/mL,64 µg/mL
CCCCCCCCn1c(CN2CCN(c3cc4c(cc3F)c(=O)c(C(=O)O)cn4C3CC3)CC2)nc2ccccc21,4 µg/mL,1 µg/mL,16 µg/mL,1 µg/mL,32 µg/mL,0.5 µg/mL,2 µg/mL,1 µg/mL,0.5 µg/mL,4 µg/mL,1 µg/mL,2 µg/mL,1 µg/mL,16 µg/mL,1 µg/mL
CCn1cc(C(=O)O)c(=O)c2cc(F)c(N3CCN(Cc4nc5ccccc5n4Cc4ccc([N+](=O)[O-])cc4)CC3)cc21,4 µg/mL,8 µg/mL,4 µg/mL,4 µg/mL,2 µg/mL,16 µg/mL,8 µg/mL,4 µg/mL,16 µg/mL,4 µg/mL,16 µg/mL,4 µg/mL,8 µg/mL,4 µg/mL,4 µg/mL
CCCCCCn1c(CN2CCN(c3cc4c(cc3F)c(=O)c(C(=O)O)cn4CC)CC2)nc2ccccc21,32 µg/mL,32 µg/mL,256 µg/mL,4 µg/mL,16 µg/mL,4 µg/mL,64 µg/mL,16 µg/mL,4 µg/mL,8 µg/mL,8 µg/mL,32 µg/mL,128 µg/mL,128 µg/mL,16 µg/mL
CCn1cc(C(=O)O)c(=O)c2cc(F)c(N3CCN(Cc4nc5ccc(Cl)cc5[nH]4)CC3)cc21,1 µg/mL,1 µg/mL,2 µg/mL,1 µg/mL,16 µg/mL,0.5 µg/mL,2 µg/mL,1 µg/mL,0.5 µg/mL,0.5 µg/mL,8 µg/mL,8 µg/mL,2 µg/mL,8 µg/mL,32 µg/mL
CCCCCn1c(CN2CCN(c3cc4c(cc3F)c(=O)c(C(=O)O)cn4C3CC3)CC2)nc2ccccc21,8 µg/mL,64 µg/mL,128 µg/mL,4 µg/mL,4 µg/mL,1 µg/mL,128 µg/mL,2 µg/mL,2 µg/mL,4 µg/mL,2 µg/mL,8 µg/mL,256 µg/mL,256 µg/mL,8 µg/mL
CCn1cc(C(=O)O)c(=O)c2cc(F)c(N3CCN(CNc4nc5ccccc5[nH]4)CC3)cc21,0.5 µg/mL,0.5 µg/mL,2 µg/mL,4 µg/mL,8 µg/mL,1 µg/mL,16 µg/mL,1 µg/mL,8 µg/mL,2 µg/mL,1 µg/mL,1 µg/mL,4 µg/mL,8 µg/mL,2 µg/mL
CCCn1c(CN2CCN(c3cc4c(cc3F)c(=O)c(C(=O)O)cn4C3CC3)CC2)nc2ccccc21,4 µg/mL,2 µg/mL,32 µg/mL,1 µg/mL,32 µg/mL,1 µg/mL,4 µg/mL,1 µg/mL,32 µg/mL,4 µg/mL,0.5 µg/mL,0.5 µg/mL,0.5 µg/mL,0.5 µg/mL,0.25 µg/mL
OC(Cn1cncn1)(Cn1cncn1)c1ccc(F)cc1F [FLUCONAZOLE],,,,,,,,,,,4 µg/mL,8 µg/mL,256 µg/mL,16 µg/mL,1 µg/mL
NC1CCN(c2c(F)cc3c(=O)c(C(=O)O)cn(C4CC4)c3c2Cl)C1 (stereo not drawn) [CLINAFLOXACIN],0.5 µg/mL,1 µg/mL,0.5 µg/mL,0.5 µg/mL,0.5 µg/mL,0.5 µg/mL,0.5 µg/mL,0.5 µg/mL,0.5 µg/mL,0.25 µg/mL,,,,,
O=C(O)c1cn(C2CC2)c2cc(N3CCNCC3)c(F)cc2c1=O [CIPROFLOXACIN],2 µg/mL,2 µg/mL,0.5 µg/mL,2 µg/mL,2 µg/mL,,,1 µg/mL,2 µg/mL,1 µg/mL,,,,,
